The values below come from PMC12775124, “CUL4A-DDB1-DCAF10 is an N-recognin for N-terminally acetylated Src kinases” (Nature Communications, 2026).

The test system of test [1] is THOC7. The test is described as follows: THOC7 turnover, cycloheximide / MG132. In kind it is cell-based, human. To be noted: NMT1/2 KD, HeLa, n = 3, 'unaffected'. The protocol:
(§1) To assess this, HeLa cells were transfected with NMT1/2 siRNA or left untreated and analysed after addition of cycloheximide (8 h) to block protein synthesis or MG132 (4 h) to inhibit proteasomal degradation.
(§2) 124 Supplementary Fig. 5. NMT1/2 knockdown leads to an increased turnover of SFKs
(§3) 125 and overexpression of DCAF10 reduces SFK levels after NMT1/2 knockdown. […]
(§4) 130 overexpression. Untreated: purple; with NMT1/2 RNAi: blue. Individual data points are
(§5) 131 indicated (n = 2 or 3 independent biological replicates). MG132 = proteasome inhibitor;
(§6) 132 CHX = cycloheximide translational inhibitor. d) HeLa cells were treated for 72 h with and
(§7) 133 without NMT1/2 siRNA and treated with cycloheximide or MG132 for the indicated
(§8) 134 periods of time. Representative WBs are shown. Filled circles indicate treatment; empty
(§9) 135 circles indicate no treatment. e-h) Fold-change analysis of protein expression levels under
(§10) 136 the indicated conditions. Left: fold change after 8 h cycloheximide treatment of (e) Lyn,
(§11) 137 (f) Fyn, (g) Src and (h) THOC7. […]
(§12) 413 knockdown, the transfection reagent Lipofectamine RNAiMAX (Invitrogen, Thermo
(§13) 414 Fisher Scientific, Waltham, MA, USA) was used at a final dilution of 1:333 (3 μL/mL of
(§14) 415 medium). Pools of siRNAs, including siNMT1, siNMT2, siDCAF10, siZYG11B, and
(§15) 416 siZER1, or combinations of different siRNAs, were reverse transfected at a concentration […]

The test system of test [2] is Lyn. In words: Lyn turnover, cycloheximide / MG132. In kind it is cell-based, human. Particulars: HeLa, n = 3. Here is the method:
as §1, §2, §3, §4, §5, §6, §7, §8, §9, §10, §11, §12, §13, §14, §15

For test [3], the system named is Fyn. The test is described as follows: Fyn turnover, cycloheximide / MG132. The format is cell-based, human. To be noted: HeLa, n = 3. Here is the method: as §1, §2, §3, §4, §5, §6, §7, §8, §9, §10, §11
410 HeLa, DLD-1 and all thereof derived stable cell lines, and RPE-1 cells were grown in
412 serum (FBS). Cells were counted and diluted to 100,000 cells/mL. For siRNA
as §12, §13
415 medium). […]

For test [4], the system named is Src. In words: Src turnover, cycloheximide / MG132. The format is cell-based, human. To be noted: HeLa, n = 3. Here is the method:
as §1, §2, §3, §4, §5, §6, §7, §8, §9, §10, §11, §12, §13, §14, §15

Test [5] has as its system CUL4A-DDB1-DCAF10. The test is described as follows: In vitro ubiquitination of Lyn-GFP variants by CUL4A-DDB1-DCAF10. In kind it is biochemical, human. Particulars: Lyn-GFP variants, NMT1/2 siRNA. The source says: Lyn^WT-GFP was ubiquitinated by the WT E3 complex in both conditions; however, unlike in vitro ubiquitination with endogenous Lyn (Fig. 5c, d), ubiquitination increased ~6-fold under NMT1/2 siRNA conditions. This is consistent with DCAF10 being limiting and overexpressed Lyn-GFP, accumulating an acetylated fraction available for DCAF10 in vitro. Then, we performed IPs for all Nt variants under NMT1/2 siRNA conditions (Fig. 6d, h–i). […] In vitro ubiquitination assays using untreated cell lysates led to similar results (Supplementary Fig. 7h, i).
(§16) Reactions contained E1, UBCH5B (E2), ubiquitin, Mg-ATP in ligation buffer and were incubated with bead-bound substrates, followed by washing and immunoblot detection of ubiquitinated species (anti-ubiquitin), with loading controls (anti-Lyn, -Fyn, -Src or -GFP) (n = 3 independent enzymatic assays). Complete reagent lists, complex preparation, substrate IP conditions, wash buffers, and gel/blot parameters are provided in the Supplementary Methods and Tables.
(§17) 357 (v/v) glycerol, 2 mM TCEP, supplemented with Protease Inhibitor Cocktail), and lysed
358 by sonication. Lysates were cleared by centrifugation at 28,000 rpm for 45 min at 4 °C
359 using a JA-30.50 rotor (Beckman Coulter, Brea, CA, USA). The cleared and filtered (0.8
360 µm) lysate was applied to 1 mL of Strep-Tactin®XT 4Flow® resin (iba), pre-equilibrated
361 once with wash buffer (100 mM Tris-HCl pH 8.0, 150 mM NaCl, 1 mM EDTA) and lysis
362 buffer. The lysate was incubated on a tube roller for 16 h at 4 °C. After incubation, beads
363 were washed with 50 mL of lysis buffer. Bound proteins were eluted with 10 mL of lysis
364 buffer supplemented with 50 mM biotin, after 15 min incubation on a tube roller at 4 °C.
366 Superdex 200 10/300 or 16/60 SEC column (GE Healthcare, Chicago, IL, USA),
367 preequilibrated in SEC buffer (250 mM Tris pH 7.5, 250 mM NaCl, 10% (v/v) glycerol,
370 Purified proteins were visualized during and after the purification by SDS-gels containing
371 TCE (2,2,2-trichloroethanol)62. The identity of proteins was confirmed by WB and MS.
373 In vitro ubiquitination assays
374 The in vitro ubiquitination assays were performed as previously described8. In brief,
375 E1 (50 nM), UBCH5B (250 nM), ubiquitin (1.5 µg), Mg-ATP (3 mM), ligation buffer,
376 and water were pre-mixed. The premix was divided, and either CUL4A-RBX1-
378 RBX1DDB1 (-DCAF10) (250 nM each) was added. 15 μL of each premix were incubated
379 with substrates (endogenous Lyn or Lyn-GFP constructs) bound to beads for 1 h at 30°C
380 with shaking. Samples were then washed four to five times with a buffer containing 50 […]
(§18) 382 EDTA, and loaded on a gradient gel (4–15%). Ubiquitination of substrates was assessed
(§19) 383 by WB using an anti-ubiquitin antibody. Equal substrate loading was evaluated by anti- […]

The subject of test [6] is Lyn. In words: In vitro ubiquitination of immunoprecipitated Lyn. The format is biochemical, human. Particulars: 250 nM E3 complex, 1 h 30°C, Ub normalized to bait, n = 3.
Source text: (§20) Having established cellular regulation by DCAF10 under reduced N-myristoylation, we aimed to test whether CUL4A-DDB1-DCAF10 directly ubiquitinates SFKs. […] As we expect NMT1/2 depletion to cause a destabilization of SFKs, their equal or even greater ubiquitination in IPs from untreated cells relative to NMT1/2-depleted cells was unanticipated. We speculate that (i) Nt-acetylated SFKs may degrade rapidly, preventing their accumulation upon NMT1/2 depletion; (ii) an acetylated fraction of SFKs may exist under physiological conditions; (iii) DCAF10 might recognize additional surfaces.
as §16, §17
(§21) 358 by sonication. Lysates were cleared by centrifugation at 28,000 rpm for 45 min at 4 °C […]
as §18, §19

For test [7], the system named is Src. In words: In vitro ubiquitination of immunoprecipitated Src. In kind it is biochemical, human. To be noted: 250 nM E3 complex, n = 3.
Source text: as §20, §16, §17, §21, §18, §19

Test [8] has as its system Fyn. The test is described as follows: In vitro ubiquitination of immunoprecipitated Fyn. In kind it is biochemical, human. Particulars: 250 nM E3 complex, n = 3.
Source text: as §20, §16, §17, §21, §18, §19

Setting [9] is: cycloheximide 100 µg/mL 8 h, NMT1/2 KD relative to cycloheximide-treated control.
The mark [10] stands for this setting: IP from NMT1/2-depleted HeLa cells.

Where a SMILES comes first, the peptide text is derived from it. The star is where a group is joined. Cbz = O=C(OCc1ccccc1)*

With `C[C@@H]1C[C@@H]([C@H](O)CC2CC(=O)NC(=O)C2)C(=O)[C@@H](C)C1` [Cycloheximide], the THOC7 decrease in test [1] (cycloheximide 100 µg/mL 8 h) amounted to 1.1 fold. Also, the Lyn decrease in test [2] (setting [9]) was found to be 2 fold. In addition, the Fyn decrease in test [3] (setting [9]) was found to be 1.5 fold. Moreover, in test [4] (setting [9]), the Src decrease amounted to 1.3 fold.
Take `CC(C)C[C@@H](C=O)NC(=O)[C@H](CC(C)C)NC(=O)[C@H](CC(C)C)NC(=O)OCc1ccccc1` [MG132] (Cbz-Leu-Leu-Leu-aldehyde): the THOC7 increase in test [1] (MG132 10 µM 4 h) is 1.1 fold. Besides, in test [2] (MG132 10 µM 4 h, NMT1/2 KD), the Lyn increase amounted to 1.6 fold. In test [3] (MG132 10 µM 4 h, NMT1/2 KD), the Fyn increase is reported as 1.6 fold. The Src increase in test [4] (MG132 10 µM 4 h, NMT1/2 KD) was found to be 2 fold.
Take “RBX1^mut: catalytically inactive variant complex (RBX1 C75A, H77A)”: the “In vitro ubiquitination (in words)” value in test [5] is “failed to ubiquitinate any variant above background”.
For “WT: catalytically active E3 ligase complex of full-length CUL4A, DDB1, DCAF10 and RBX1”, the “Lyn ubiquitination, ratio relative to RBX1^mut” value in test [6] (setting [10]) is given as 2.18 fold; in test [6] (IP from control HeLa cells) it was 2.58 fold. Also, the “Src ubiquitination, ratio relative to RBX1^mut” value in test [7] (setting [10]) amounted to 2.03 fold; in test [7] (IP from control HeLa cells), 3.0 fold. Further, the “Fyn ubiquitination, ratio relative to RBX1^mut” value in test [8] (setting [10]) is 2.27 fold; in test [8] (IP from control HeLa cells) it was 2.73 fold.
